Measured values from ChEMBL document CHEMBL4261605, “Discovery of a novel series of pyridine and pyrimidine carboxamides as potent and selective covalent inhibitors of Btk” (Bioorg Med Chem Lett, 2018).

Key:
[1] = target: T1, Tyrosine-protein kinase BTK (Homo sapiens, UniProt Q06187); assay: Inhibition of recombinant human full length N-terminal GST-tagged BTK (2 to 659 residues) expressed in baculovirus expression system using FITC-AHA-EEPLYWSFPAKKK-NH2 substrate measured after 90 mins by off-chip mobility shift assay
[2] = target: T1, Tyrosine-protein kinase BTK; assay: Inhibition of BTK in goat anti-human IgM F(ab')2-stimulated human PBMC assessed as suppression of BCR-induced CD69 expression on B cells pretreated for 1 hr followed by blood stimulation measured after overnight incubation by flow cytometry; type: cell-based
[3] = Permeability across apical to basolateral side in human Caco2 cells; conditions: Caco-2
[4] = Efflux ratio of permeability in human Caco2 cells; conditions: Caco-2
[5] = Half life in mouse at 0.5 mg/kg, po; type: ADME, organism-based; conditions: in vivo
[6] = AUC in mouse at 0.5 mg/kg, po; type: ADME, organism-based; conditions: in vivo
Cytochrome P450 2C9 = Cytochrome P450 2C9 (Homo sapiens, UniProt P11712); assay: Inhibition of CYP2C9 (unknown origin); type: ADME
Cytochrome P450 2B6 = target: T2, Cytochrome P450 2B6 (Homo sapiens, UniProt P20813); assay: Inhibition of CYP2B6 (unknown origin); type: ADME
T2 sequence (P20813 whole entry): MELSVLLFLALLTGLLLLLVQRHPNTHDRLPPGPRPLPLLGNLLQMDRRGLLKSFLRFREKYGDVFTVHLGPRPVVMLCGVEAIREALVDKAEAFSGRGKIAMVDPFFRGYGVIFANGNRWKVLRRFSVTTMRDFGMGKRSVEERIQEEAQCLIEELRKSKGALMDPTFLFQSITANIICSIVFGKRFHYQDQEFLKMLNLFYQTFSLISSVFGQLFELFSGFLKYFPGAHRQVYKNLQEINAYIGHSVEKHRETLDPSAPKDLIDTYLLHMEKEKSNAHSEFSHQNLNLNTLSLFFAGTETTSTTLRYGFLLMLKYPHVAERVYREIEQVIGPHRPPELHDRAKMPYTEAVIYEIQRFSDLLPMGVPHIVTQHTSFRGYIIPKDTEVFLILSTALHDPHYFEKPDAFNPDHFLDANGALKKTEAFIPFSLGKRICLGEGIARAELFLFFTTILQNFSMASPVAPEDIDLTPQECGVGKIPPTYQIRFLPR

Cytochrome P450 2C19 = Cytochrome P450 2C19 (Homo sapiens, UniProt P33261); assay: Inhibition of CYP2C19 (unknown origin); type: ADME
Cytochrome P450 2C8 = target: T3, Cytochrome P450 2C8 (Homo sapiens, UniProt P10632); assay: Inhibition of CYP2C8 (unknown origin); type: ADME
T3 sequence (P10632 whole entry): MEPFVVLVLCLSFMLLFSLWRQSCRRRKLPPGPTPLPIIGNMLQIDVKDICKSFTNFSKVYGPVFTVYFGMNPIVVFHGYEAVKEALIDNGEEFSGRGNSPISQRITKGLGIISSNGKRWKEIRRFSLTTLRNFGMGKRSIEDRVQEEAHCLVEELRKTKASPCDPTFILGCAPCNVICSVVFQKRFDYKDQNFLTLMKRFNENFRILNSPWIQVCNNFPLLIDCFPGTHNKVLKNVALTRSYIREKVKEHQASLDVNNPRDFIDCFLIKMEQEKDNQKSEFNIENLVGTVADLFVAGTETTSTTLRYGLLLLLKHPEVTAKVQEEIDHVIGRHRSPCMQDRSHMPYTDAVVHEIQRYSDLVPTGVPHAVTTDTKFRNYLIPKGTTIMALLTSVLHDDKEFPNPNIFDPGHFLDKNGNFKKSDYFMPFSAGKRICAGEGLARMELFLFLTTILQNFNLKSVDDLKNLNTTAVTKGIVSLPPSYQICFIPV

Cytochrome P450 3A4 = Cytochrome P450 3A4 (Homo sapiens, UniProt P08684); assay: Inhibition of CYP3A4 (unknown origin); type: ADME
[7] = target: T1, Tyrosine-protein kinase BTK; assay: Inhibition of recombinant human full length N-terminal GST-tagged BTK (2 to 659 residues) expressed in baculovirus expression system at 100 uM using FITC-AHA-EEPLYWSFPAKKK-NH2 substrate measured after 90 mins by off-chip mobility shift assay relative to control

T1 sequence (Q06187 whole entry, the tested form may be a part): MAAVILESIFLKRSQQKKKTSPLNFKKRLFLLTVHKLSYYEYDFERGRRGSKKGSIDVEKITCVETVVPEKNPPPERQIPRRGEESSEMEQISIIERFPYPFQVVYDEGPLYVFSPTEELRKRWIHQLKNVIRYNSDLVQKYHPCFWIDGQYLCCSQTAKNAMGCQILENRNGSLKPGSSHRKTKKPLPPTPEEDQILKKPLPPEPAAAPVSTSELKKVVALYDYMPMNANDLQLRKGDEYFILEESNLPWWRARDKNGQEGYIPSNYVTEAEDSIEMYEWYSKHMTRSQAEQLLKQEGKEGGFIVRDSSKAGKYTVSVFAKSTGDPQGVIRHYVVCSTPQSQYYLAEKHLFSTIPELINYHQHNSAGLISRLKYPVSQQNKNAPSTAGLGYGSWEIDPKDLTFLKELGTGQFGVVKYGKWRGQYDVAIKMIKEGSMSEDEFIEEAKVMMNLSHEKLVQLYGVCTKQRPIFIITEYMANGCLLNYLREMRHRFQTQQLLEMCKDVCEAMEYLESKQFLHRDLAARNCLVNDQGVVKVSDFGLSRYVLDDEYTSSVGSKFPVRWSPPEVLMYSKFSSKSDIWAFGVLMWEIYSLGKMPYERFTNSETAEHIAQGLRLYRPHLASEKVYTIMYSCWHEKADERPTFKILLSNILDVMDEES
Chain of Cytochrome P450 3A4 (P08684 whole entry, the tested form may be a part): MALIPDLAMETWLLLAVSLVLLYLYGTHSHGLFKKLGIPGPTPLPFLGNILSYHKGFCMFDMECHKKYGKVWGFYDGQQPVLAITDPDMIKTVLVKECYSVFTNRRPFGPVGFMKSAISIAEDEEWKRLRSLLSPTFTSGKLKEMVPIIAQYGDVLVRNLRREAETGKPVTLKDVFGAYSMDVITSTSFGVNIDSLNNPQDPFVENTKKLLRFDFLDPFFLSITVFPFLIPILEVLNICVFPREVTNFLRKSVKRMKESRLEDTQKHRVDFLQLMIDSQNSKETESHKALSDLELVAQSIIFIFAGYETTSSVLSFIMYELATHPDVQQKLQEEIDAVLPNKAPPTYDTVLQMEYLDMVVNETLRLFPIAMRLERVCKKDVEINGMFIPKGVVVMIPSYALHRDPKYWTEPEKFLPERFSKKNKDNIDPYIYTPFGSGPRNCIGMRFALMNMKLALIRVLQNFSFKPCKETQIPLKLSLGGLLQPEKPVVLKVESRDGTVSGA
Chain of Cytochrome P450 2C9 (P11712 whole entry): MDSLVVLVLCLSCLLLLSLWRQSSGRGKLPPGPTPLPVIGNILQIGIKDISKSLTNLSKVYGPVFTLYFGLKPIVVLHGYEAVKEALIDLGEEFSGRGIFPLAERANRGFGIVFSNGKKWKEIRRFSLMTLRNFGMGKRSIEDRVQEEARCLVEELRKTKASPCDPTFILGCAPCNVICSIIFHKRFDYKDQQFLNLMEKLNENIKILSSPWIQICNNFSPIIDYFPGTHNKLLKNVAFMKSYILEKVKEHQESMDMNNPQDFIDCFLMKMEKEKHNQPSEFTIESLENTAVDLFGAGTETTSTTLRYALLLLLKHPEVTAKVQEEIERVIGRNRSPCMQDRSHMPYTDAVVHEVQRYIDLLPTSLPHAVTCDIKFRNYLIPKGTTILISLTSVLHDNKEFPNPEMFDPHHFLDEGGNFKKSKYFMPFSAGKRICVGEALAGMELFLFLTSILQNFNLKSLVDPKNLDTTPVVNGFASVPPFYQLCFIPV
Chain of Cytochrome P450 2C19 (P33261 whole entry): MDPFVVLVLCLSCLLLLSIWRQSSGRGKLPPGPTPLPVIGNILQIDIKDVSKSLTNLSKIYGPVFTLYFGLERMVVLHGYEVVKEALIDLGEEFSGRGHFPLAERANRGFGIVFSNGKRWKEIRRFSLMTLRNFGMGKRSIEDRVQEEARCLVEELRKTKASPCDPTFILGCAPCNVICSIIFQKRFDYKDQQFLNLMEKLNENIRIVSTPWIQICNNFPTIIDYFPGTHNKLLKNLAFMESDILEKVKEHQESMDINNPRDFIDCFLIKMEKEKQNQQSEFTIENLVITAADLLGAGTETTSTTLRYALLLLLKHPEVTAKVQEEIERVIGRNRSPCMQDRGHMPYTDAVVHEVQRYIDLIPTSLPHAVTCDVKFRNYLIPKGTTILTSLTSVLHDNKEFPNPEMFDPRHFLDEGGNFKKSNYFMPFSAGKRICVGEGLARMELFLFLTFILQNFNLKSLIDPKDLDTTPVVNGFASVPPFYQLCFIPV

Row | IC50 [1] | IC50 [2] | SMILES | further results
1 | 1.6 nM | 14 nM | C=CC(=O)N[C@H]1CCN(c2nc(Nc3ccc(N4C[C@@H](C)O[C@@H](C)C4)cc3)c(C(N)=O)cc2F)C1 | –
2 | 1.3 nM | 41 nM | C=CC(=O)N(C)[C@H]1CCN(c2ccc(C(N)=O)c(Nc3ccc(CCN4CCCC4)cc3)n2)C1 | Papp A→B [3]: 0.07 ×10⁻⁶ cm/s; efflux ratio [4]: 266
3 | – | – | C=CC(=O)N1CCC[C@@H](n2nc(-c3ccc(Oc4ccccc4)cc3)c3c(N)ncnc32)C1 [IBRUTINIB] | half-life [5]: 30 min; AUC [6]: 26 ng·h/mL; INH (Cytochrome P450 2C9): 8.5 µM; INH (Cytochrome P450 2B6): 11.1 µM; INH (Cytochrome P450 2C19): 19 µM; INH (Cytochrome P450 2C8): 7.9 µM; INH (Cytochrome P450 3A4): 11 µM
4 | 180 nM | – | C=CC(=O)N[C@H]1CCN(c2ncc(C(N)=O)c(N)n2)C1 | –
5 | 1600 nM | – | NC(=O)c1ccc(N2CC[C@H](N)C2)nc1Nc1ccc(C(=O)N2CCOCC2)cc1 | –
6 | 0.6 nM | 6.1 nM | C=CC(=O)N[C@H]1CCN(c2ccc(C(N)=O)c(Nc3ccc(N4C[C@@H](C)O[C@@H](C)C4)cc3)n2)C1 | –
7 | 0.5 nM | – | C=CC(=O)N[C@H]1CCN(c2ncc(C(N)=O)c(Nc3ccc(C(=O)N4CCOCC4)cc3)n2)C1 | –
8 | 0.3 nM | 4.3 nM | C=CC(=O)N1CCN(c2ccc(C(N)=O)c(Nc3ccc(CCN4CCCC4)cc3)n2)CC1 | –
9 | 1.5 nM | – | C=CC(=O)N[C@H]1CCN(c2ccc(C(N)=O)c(Nc3ccc(C(=O)N4CCOCC4)cc3)n2)C1 | –
10 | > 6000 nM | – | C=CC(=O)N[C@H]1CCN(c2ccc(C(N)=O)c(NC3CCCCC3)n2)C1 | –
11 | 1.1 nM | 44 nM | C=CC(=O)N[C@H]1CCN(c2ncc(C(N)=O)c(Nc3ccc(C(=O)N4CC(C)OC(C)C4)cc3)n2)C1 (some centres undefined) | –
12 | 11 nM | – | C=CC(=O)N[C@H]1CCN(c2ccc(C(N)=O)c(Nc3ccc(Oc4ccccc4)cc3)n2)C1 | –
13 | 500 nM | – | C=CC(=O)N[C@@H]1CCN(c2ncc(C(N)=O)c(N)n2)C1 | –
14 | 8 nM | – | C=CC(=O)N[C@H]1CCN(c2ncc(C(N)=O)c(Nc3ccc(F)cc3)n2)C1 | –
15 | > 6000 nM | – | NC(=O)c1ccc(NC2CCCCC2)nc1 | inhibition [7]: 71%
16 | 16.2 nM | – | C=CC(=O)N[C@@H]1CCN(c2ccc(C(N)=O)c(Nc3ccc(C(=O)N4CCOCC4)cc3)n2)C1 | –
17 | 0.09 nM | 4.9 nM | C=CC(=O)N[C@@H]1CN(c2ccc(C(N)=O)c(Nc3ccc(CCN4CCCC4)cc3)n2)CC12CC2 | Papp A→B [3]: 0.02 ×10⁻⁶ cm/s; efflux ratio [4]: 822
18 | 1.9 nM | 7 nM | C=CC(=O)N[C@H]1CCN(c2ccc(C(N)=O)c(Nc3ccc(CCN4CCCC4)cc3)n2)C1 | –
19 | 16 nM | – | C=CC(=O)N[C@H]1CCCN(c2ccc(C(N)=O)c(Nc3ccc(C(=O)N4CCOCC4)cc3)n2)C1 | –
20 | 0.1 nM | 1.4 nM | C=CC(=O)N1C[C@H]2C[C@@H]1CN2c1ccc(C(N)=O)c(Nc2ccc(C)nc2)n1 | –
